Results: patent US7294689B2, “Agonist polypeptide of receptor for Zot and Zonulin” (University of Maryland, Baltimore, priority 2003, dated 2007)
“Also recorded” adds a separate entry of the source.

B1: MCP-II: mast cell protease II, serine proteinase of mucosal mast cells (protein, UniProt P00770 21-247, looked up)
Mast cell protease 2: IIGGVESIPHSRPYMAHLDIVTEKGLRVICGGFLISRQFVLTAAHCKGREITVILGAHDVRKRESTQQKIKVEKQIIHESYNSVPNLHDIMLLKLEKKVELTPAVNVVPLPSPSDFIHPGAMCWAAGWGKTGVRDPTSYTLREVELRIMDEKACVDYRYYEYKFQVCVGSPTTLRAAFMGDSGGPLLCAGVAHGIVSYGHPDAKPPAIFTRVSTYVPWINAVINTSS

Assays:
[1] = test system: intestinal tissues of wild-type mice; assay: Intestinal TEER in wild-type mice; conditions: vs control tissues
[2] = test system: mouse intestinal small intestine; assay: Microsnapwell assay, mouse small intestine TEER; conditions: luminal addition; PAR-2 AP 10^−6M, MCP-II 10^−8M; vs untreated tissues
PAR-2 = assay: FZI/0-PAR-2 AP competitive binding experiments in Caco2 cells; parameters: species or system human; conditions: FITC-FZI/0 2×10^−8M, competitor 100× excess (10^−6M)
Description: FIGS. 4A-4D. FZI/0-PAR-2 AP competitive binding experiments.
FZI/0—PAR-2 AP competitive binding experiments. The activation of PAR-2 requires binding of either its tryptase-generated, cleaved N-terminal portion or the synthetic peptide equivalent, PAR-2 AP, to the receptor's extracellular loop 2 (ECL2) (47). To establish whether FZI/0 binds to the same receptor domain, competitive binding experiments were conducted in Caco2 cells. Cell monolayers were incubated with FITC-FZI/0 (2×10^−8M)) either in the presence of an excess of PAR-2 AP (10^−6M) or a scrambled peptide and then analyzed by fluorescence microscopy.

Caco2 cell monolayers = assay: PAR-2 AP-induced actin rearrangement in Caco2 cell monolayers; type: cell-based, human; conditions: 10^−6M, vs BSA-treated monolayers
From the text: FIGS. 5A to 5D. Actin cytoskeleton arrangement in Caco2 cells exposed to PAR2-AP (FIG. 5A), BSA (FIG. 5B), PAR2-AP+FZI/0 (FIG. 5C), or PAR-2 AP+FZI/1 (FIG. 5D).
Effect of the Zot/zonulin inhibitor FZI/0 on PAR-2 AP-induced actin rearrangement. It has been recently reported that activation of PAR-2 receptor by PAR-2 AP promotes cytoskeletal reorganization (53). To establish whether this effect can be prevented by the synthetic Zot/zonulin peptide inhibitor, FZI/0, immunofluorescence studies were conducted in Caco2 cell monolayers. […] These cytoskeletal changes were blocked by the pre-incubation with 2×10^−6M FZI/0 (FIG. 5C), but not by the scrambled peptide FZI/1 (FIG. 5D). Therefore, PAR-2 AP and FZI/0 appear to bind to the identical structure on enterocytes.

Row | Molecule | Effect on intestinal TEER [1] | Effect on TEER [2] | Displacement of FITC-FZI/0 by excess competitor (PAR-2) | Displacement of FITC-FZI/0 by excess competitor (PAR-2; listed as PAR2-AP) | Actin cytoskeleton arrangement (stress fibers) (Caco2 cell monolayers)
1 | SLIGRL [PAR-2 AP] | significant drops in TEER; also recorded: comparable drop in intestinal resistance | significant drops in TEER; also recorded: decreased TEER | significant reduction of FZI/0 immunofluorescent staining particles | displaced FZI/0 | dissolution of stress fibers
2 | B1 |  | significant drops in TEER; also recorded: decreased TEER |  |  | 
